# Laboratory results as given in ChEMBL document CHEMBL3856280, “Targeting the HSP60/10 chaperonin systems of Trypanosoma brucei as a strategy for treating African sleeping sickness” (Bioorg Med Chem Lett, 2016).
# Assays:
# [1] = test system: Trypanosoma brucei brucei; experiment: Antitrypanosomal activity against Trypanosoma brucei brucei Lister 427 VSG 221 [TetR T7RNAP] transgenic bloodstream forms assessed as reduction in cell viability after 48 hrs by alamar blue assay; type: functional; conditions: Lister 427 VSG 221, 48 h
# E. coli GroEL/ES [2] = molecular target: T1, E. coli GroEL/ES (Escherichia coli, UniProt P0A6F5); experiment: Inhibition of Escherichia coli GroEL/GroES expressed in Escherichia coli DH5alpha/BL21 (DE3) assessed as inhibition of denatured MDH refolding preincubated for 10 mins followed by ATP addition measured after 20 to 40 mins by fluorescence based assay
# HSP60/HSP10 [3] = molecular target: T2, HSP60/HSP10 (Homo sapiens, UniProt P10809); experiment: Inhibition of human mitochondrial HSP60/HSP10 expressed in Escherichia coli DH5alpha/BL21 (DE3) assessed as inhibition of denatured MDH refolding preincubated for 10 mins followed by ATP addition measured after 40 to 60 mins by fluorescence based assay
# E. coli GroEL/ES [4] = molecular target: T1, E. coli GroEL/ES; experiment: Inhibition of Escherichia coli GroEL/GroES-ATPase activity expressed in Escherichia coli DH5alpha/BL21 (DE3) assessed as inhibition of denatured MDH refolding preincubated for 10 mins followed by ATP addition measured after 20 to 40 mins by malachite green dye based fluorescence assay
# HSP60/HSP10 [5] = molecular target: T2, HSP60/HSP10; experiment: Inhibition of human mitochondrial HSP60/HSP10-ATPase activity expressed in Escherichia coli DH5alpha/BL21 (DE3) assessed as inhibition of denatured MDH refolding preincubated for 10 mins followed by ATP addition measured after 40 to 60 mins by malachite green dye based fluorescence assay
# [6] = Cytotoxicity against human THLE3 cells assessed as reduction in cell viability after 48 hrs by alamar blue assay; type: toxicity, cell-based
# [7] = Cytotoxicity against HEK293 cells assessed as reduction in cell viability after 48 hrs by alamar blue assay; type: toxicity, cell-based; conditions: human
# [8] = Inhibition of pig heart native MDH reporter reaction after 20 to 40 mins by fluorescence based assay; parameters: species or system Sus scrofa
# T2 sequence (P10809 whole entry): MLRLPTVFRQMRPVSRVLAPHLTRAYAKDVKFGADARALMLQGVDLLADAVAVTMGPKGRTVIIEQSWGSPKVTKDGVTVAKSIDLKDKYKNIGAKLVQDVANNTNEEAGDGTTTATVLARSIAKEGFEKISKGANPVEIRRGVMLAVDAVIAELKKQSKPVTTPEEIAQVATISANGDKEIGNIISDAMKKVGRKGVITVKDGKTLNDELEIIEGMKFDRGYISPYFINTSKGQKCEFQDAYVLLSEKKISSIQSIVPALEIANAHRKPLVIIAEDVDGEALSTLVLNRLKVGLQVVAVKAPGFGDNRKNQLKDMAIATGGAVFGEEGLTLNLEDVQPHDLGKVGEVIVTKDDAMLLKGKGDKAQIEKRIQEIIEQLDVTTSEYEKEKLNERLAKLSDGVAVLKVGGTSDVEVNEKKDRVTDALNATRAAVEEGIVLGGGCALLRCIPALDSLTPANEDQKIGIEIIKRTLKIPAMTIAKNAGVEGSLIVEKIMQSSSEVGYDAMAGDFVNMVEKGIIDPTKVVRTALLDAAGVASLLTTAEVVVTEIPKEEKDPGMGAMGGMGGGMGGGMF
# T2 sequence (P61604 whole entry, further chain): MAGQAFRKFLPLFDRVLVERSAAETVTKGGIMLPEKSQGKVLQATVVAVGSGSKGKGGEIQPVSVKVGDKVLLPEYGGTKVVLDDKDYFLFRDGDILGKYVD
# T1 sequence (P0A6F5 whole entry, looked up): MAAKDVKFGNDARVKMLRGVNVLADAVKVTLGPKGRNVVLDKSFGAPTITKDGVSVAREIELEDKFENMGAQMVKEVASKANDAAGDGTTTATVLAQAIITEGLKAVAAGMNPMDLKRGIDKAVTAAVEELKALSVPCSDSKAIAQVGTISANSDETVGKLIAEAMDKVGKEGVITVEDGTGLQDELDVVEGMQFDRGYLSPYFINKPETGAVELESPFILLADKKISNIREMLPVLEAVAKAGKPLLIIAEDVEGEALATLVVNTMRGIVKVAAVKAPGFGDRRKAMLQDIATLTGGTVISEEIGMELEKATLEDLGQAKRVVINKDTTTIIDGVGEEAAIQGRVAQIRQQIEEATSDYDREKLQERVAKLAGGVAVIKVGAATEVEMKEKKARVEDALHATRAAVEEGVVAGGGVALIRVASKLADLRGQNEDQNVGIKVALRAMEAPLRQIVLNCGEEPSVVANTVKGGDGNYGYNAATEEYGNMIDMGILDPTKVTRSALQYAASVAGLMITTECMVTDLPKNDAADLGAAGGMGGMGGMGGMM
compound,measurement,setting,value
CS(=O)(=O)Nc1ccc(-c2nc3cc(NS(C)(=O)=O)ccc3o2)cc1,EC50,[1],> 42 µM
same,IC50,E. coli GroEL/ES [2],> 100 µM
same,IC50,HSP60/HSP10 [3],> 100 µM
same,IC50,E. coli GroEL/ES [4],> 250 µM
same,IC50,HSP60/HSP10 [5],> 250 µM
same,EC50 at 48 h,[6],> 100 µM
same,EC50 at 48 h,[7],> 100 µM
same,IC50,[8],> 63 µM
Cc1cccc(S(=O)(=O)Nc2ccc(-c3nc4cc(NS(=O)(=O)c5cccc(C)c5)ccc4o3)cc2)c1,EC50,[1],4.9 µM
same,IC50,E. coli GroEL/ES [2],35 µM
same,IC50,HSP60/HSP10 [3],> 100 µM
same,IC50,E. coli GroEL/ES [4],> 250 µM
same,IC50,HSP60/HSP10 [5],> 250 µM
same,EC50 at 48 h,[6],18 µM
same,EC50 at 48 h,[7],65 µM
same,IC50,[8],> 63 µM
O=S(=O)(Nc1ccc(-c2nc3cc(NS(=O)(=O)c4ccc(C(F)(F)F)cc4)ccc3o2)cc1)c1ccc(C(F)(F)F)cc1,EC50,[1],4.1 µM
same,IC50,E. coli GroEL/ES [2],35 µM
same,IC50,HSP60/HSP10 [3],61 µM
same,IC50,E. coli GroEL/ES [4],> 250 µM
same,IC50,HSP60/HSP10 [5],> 250 µM
same,EC50 at 48 h,[6],21 µM
same,EC50 at 48 h,[7],> 100 µM
same,IC50,[8],> 63 µM
O=C(O)c1ccccc1S(=O)(=O)Nc1ccc(-c2nc3cc(NS(=O)(=O)c4ccccc4C(=O)O)ccc3o2)cc1,EC50,[1],> 42 µM
same,IC50,E. coli GroEL/ES [2],> 100 µM
same,IC50,HSP60/HSP10 [3],> 100 µM
same,IC50,E. coli GroEL/ES [4],> 250 µM
same,IC50,HSP60/HSP10 [5],> 250 µM
same,EC50 at 48 h,[6],> 100 µM
same,EC50 at 48 h,[7],> 100 µM
same,IC50,[8],> 63 µM
O=S(=O)(Nc1ccc(-c2nc3cc(NS(=O)(=O)c4ccc(Br)cc4)ccc3o2)cc1)c1ccc(Br)cc1,EC50,[1],2.4 µM
same,IC50,E. coli GroEL/ES [2],24 µM
same,IC50,HSP60/HSP10 [3],> 100 µM
same,IC50,E. coli GroEL/ES [4],19 µM
same,IC50,HSP60/HSP10 [5],> 250 µM
same,EC50 at 48 h,[6],16 µM
same,EC50 at 48 h,[7],22 µM
same,IC50,[8],> 63 µM
O=S(=O)(Nc1ccc(-c2nc3cc(NS(=O)(=O)c4ccc(O)cc4)ccc3o2)cc1)c1ccc(O)cc1,EC50,[1],21 µM
same,IC50,E. coli GroEL/ES [2],0.34 µM
same,IC50,HSP60/HSP10 [3],11 µM
same,IC50,E. coli GroEL/ES [4],0.31 µM
same,IC50,HSP60/HSP10 [5],59 µM
same,EC50 at 48 h,[6],41 µM
same,EC50 at 48 h,[7],38 µM
same,IC50,[8],50 µM
COc1cccc(S(=O)(=O)Nc2ccc(-c3nc4cc(NS(=O)(=O)c5cccc(OC)c5)ccc4o3)cc2)c1,EC50,[1],5.1 µM
same,IC50,E. coli GroEL/ES [2],48 µM
same,IC50,HSP60/HSP10 [3],> 100 µM
same,IC50,E. coli GroEL/ES [4],> 250 µM
same,IC50,HSP60/HSP10 [5],> 250 µM
same,EC50 at 48 h,[6],15 µM
same,EC50 at 48 h,[7],28 µM
same,IC50,[8],> 63 µM
O=S(=O)(Nc1ccc(-c2nc3cc(NS(=O)(=O)c4cccc(C(F)(F)F)c4)ccc3o2)cc1)c1cccc(C(F)(F)F)c1,EC50,[1],4.8 µM
same,IC50,E. coli GroEL/ES [2],15 µM
same,IC50,HSP60/HSP10 [3],> 100 µM
same,IC50,E. coli GroEL/ES [4],216 µM
same,IC50,HSP60/HSP10 [5],> 250 µM
same,EC50 at 48 h,[6],19 µM
same,EC50 at 48 h,[7],15 µM
same,IC50,[8],> 63 µM
N#Cc1ccccc1S(=O)(=O)Nc1ccc(-c2nc3cc(NS(=O)(=O)c4ccccc4C#N)ccc3o2)cc1,EC50,[1],23 µM
same,IC50,E. coli GroEL/ES [2],32 µM
same,IC50,HSP60/HSP10 [3],86 µM
same,IC50,E. coli GroEL/ES [4],> 250 µM
same,IC50,HSP60/HSP10 [5],193 µM
same,EC50 at 48 h,[6],93 µM
same,EC50 at 48 h,[7],74 µM
same,IC50,[8],> 63 µM
O=S(=O)(Nc1ccc(-c2nc3cc(NS(=O)(=O)c4cccc(O)c4)ccc3o2)cc1)c1cccc(O)c1,EC50,[1],8.9 µM
same,IC50,E. coli GroEL/ES [2],0.9 µM
same,IC50,HSP60/HSP10 [3],19 µM
same,IC50,E. coli GroEL/ES [4],0.79 µM
same,IC50,HSP60/HSP10 [5],61 µM
same,EC50 at 48 h,[6],37 µM
same,EC50 at 48 h,[7],36 µM
same,IC50,[8],47 µM
COC(=O)c1ccccc1S(=O)(=O)Nc1ccc(-c2nc3cc(NS(=O)(=O)c4ccccc4C(=O)OC)ccc3o2)cc1,EC50,[1],28 µM
same,IC50,E. coli GroEL/ES [2],36 µM
same,IC50,HSP60/HSP10 [3],> 100 µM
same,IC50,E. coli GroEL/ES [4],53 µM
same,IC50,HSP60/HSP10 [5],> 250 µM
same,EC50 at 48 h,[6],> 100 µM
same,EC50 at 48 h,[7],> 100 µM
same,IC50,[8],> 63 µM
O=S(=O)(Nc1ccc(-c2nc3cc(NS(=O)(=O)c4ccc(F)cc4)ccc3o2)cc1)c1ccc(F)cc1,EC50,[1],4.3 µM
same,IC50,E. coli GroEL/ES [2],3.8 µM
same,IC50,HSP60/HSP10 [3],> 100 µM
same,IC50,E. coli GroEL/ES [4],4.3 µM
same,IC50,HSP60/HSP10 [5],> 250 µM
same,EC50 at 48 h,[6],19 µM
same,EC50 at 48 h,[7],21 µM
same,IC50,[8],> 63 µM
O=[N+]([O-])c1cccc(S(=O)(=O)Nc2ccc(-c3nc4cc(NS(=O)(=O)c5cccc([N+](=O)[O-])c5)ccc4o3)cc2)c1,EC50,[1],11 µM
same,IC50,E. coli GroEL/ES [2],11 µM
same,IC50,HSP60/HSP10 [3],60 µM
same,IC50,E. coli GroEL/ES [4],> 250 µM
same,IC50,HSP60/HSP10 [5],> 250 µM
same,EC50 at 48 h,[6],37 µM
same,EC50 at 48 h,[7],46 µM
same,IC50,[8],> 63 µM
O=[N+]([O-])c1ccccc1S(=O)(=O)Nc1ccc(-c2nc3cc(NS(=O)(=O)c4ccccc4[N+](=O)[O-])ccc3o2)cc1,EC50,[1],> 42 µM
same,IC50,E. coli GroEL/ES [2],3.6 µM
same,IC50,HSP60/HSP10 [3],75 µM
same,IC50,E. coli GroEL/ES [4],3.1 µM
same,IC50,HSP60/HSP10 [5],194 µM
same,EC50 at 48 h,[6],93 µM
same,EC50 at 48 h,[7],60 µM
same,IC50,[8],> 63 µM
Cc1ccccc1S(=O)(=O)Nc1ccc(-c2nc3cc(NS(=O)(=O)c4ccccc4C)ccc3o2)cc1,EC50,[1],1.8 µM
same,IC50,E. coli GroEL/ES [2],> 100 µM
same,IC50,HSP60/HSP10 [3],> 100 µM
same,IC50,E. coli GroEL/ES [4],194 µM
same,IC50,HSP60/HSP10 [5],> 250 µM
same,EC50 at 48 h,[6],17 µM
same,EC50 at 48 h,[7],25 µM
same,IC50,[8],> 63 µM
COC(=O)c1cccc(S(=O)(=O)Nc2ccc(-c3nc4cc(NS(=O)(=O)c5cccc(C(=O)OC)c5)ccc4o3)cc2)c1,EC50,[1],> 42 µM
same,IC50,E. coli GroEL/ES [2],11 µM
same,IC50,HSP60/HSP10 [3],95 µM
same,IC50,E. coli GroEL/ES [4],> 250 µM
same,IC50,HSP60/HSP10 [5],> 250 µM
same,EC50 at 48 h,[6],49 µM
same,EC50 at 48 h,[7],> 100 µM
same,IC50,[8],> 63 µM
O=S(=O)(Nc1ccc(-c2nc3cc(NS(=O)(=O)c4ccc5nsnc5c4)ccc3o2)cc1)c1ccc2nsnc2c1,EC50,[1],> 42 µM
same,IC50,E. coli GroEL/ES [2],3.7 µM
same,IC50,HSP60/HSP10 [3],62 µM
same,IC50,E. coli GroEL/ES [4],1.7 µM
same,IC50,HSP60/HSP10 [5],127 µM
same,EC50 at 48 h,[6],45 µM
same,EC50 at 48 h,[7],76 µM
same,IC50,[8],> 63 µM
Nc1cccc(S(=O)(=O)Nc2ccc(-c3nc4cc(NS(=O)(=O)c5cccc(N)c5)ccc4o3)cc2)c1,EC50,[1],15 µM
same,IC50,E. coli GroEL/ES [2],2.8 µM
same,IC50,HSP60/HSP10 [3],87 µM
same,IC50,E. coli GroEL/ES [4],9.6 µM
same,IC50,HSP60/HSP10 [5],127 µM
same,EC50 at 48 h,[6],30 µM
same,EC50 at 48 h,[7],58 µM
same,IC50,[8],> 63 µM
O=S(=O)(Nc1ccc(-c2nc3cc(NS(=O)(=O)c4ccccc4F)ccc3o2)cc1)c1ccccc1F,EC50,[1],19 µM
same,IC50,E. coli GroEL/ES [2],22 µM
same,IC50,HSP60/HSP10 [3],77 µM
same,IC50,E. coli GroEL/ES [4],> 250 µM
same,IC50,HSP60/HSP10 [5],> 250 µM
same,EC50 at 48 h,[6],55 µM
same,EC50 at 48 h,[7],31 µM
same,IC50,[8],> 63 µM
O=S(=O)(Nc1ccc(-c2nc3cc(NS(=O)(=O)c4ccccc4)ccc3o2)cc1)c1ccccc1,EC50,[1],6.4 µM
same,IC50,E. coli GroEL/ES [2],3.9 µM
same,IC50,HSP60/HSP10 [3],> 100 µM
same,IC50,E. coli GroEL/ES [4],4.6 µM
same,IC50,HSP60/HSP10 [5],> 250 µM
same,EC50 at 48 h,[6],19 µM
same,EC50 at 48 h,[7],15 µM
same,IC50,[8],> 63 µM
O=C(O)c1cccc(S(=O)(=O)Nc2ccc(-c3nc4cc(NS(=O)(=O)c5cccc(C(=O)O)c5)ccc4o3)cc2)c1,EC50,[1],> 42 µM
same,IC50,E. coli GroEL/ES [2],61 µM
same,IC50,HSP60/HSP10 [3],81 µM
same,IC50,E. coli GroEL/ES [4],> 250 µM
same,IC50,HSP60/HSP10 [5],> 250 µM
same,EC50 at 48 h,[6],> 100 µM
same,EC50 at 48 h,[7],> 100 µM
same,IC50,[8],41 µM
O=[N+]([O-])c1ccc(S(=O)(=O)Nc2ccc(-c3nc4cc(NS(=O)(=O)c5ccc([N+](=O)[O-])cc5)ccc4o3)cc2)cc1,EC50,[1],15 µM
same,IC50,E. coli GroEL/ES [2],26 µM
same,IC50,HSP60/HSP10 [3],65 µM
same,IC50,E. coli GroEL/ES [4],> 250 µM
same,IC50,HSP60/HSP10 [5],> 250 µM
same,EC50 at 48 h,[6],36 µM
same,EC50 at 48 h,[7],59 µM
same,IC50,[8],> 63 µM
